Test results taken from the supplement of paper PMC7840683.
± gives the standard deviation of the averaged measurements.

System: HepaRG
Test: LDH release cytotoxicity, % of total lysis control; higher = more cytotoxic
Conditions: 48 h
Outline: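 Single-lot HepaRG cells on collagen I-coated 96-well plates were exposed for 48 h in duplicate, in serum-free induction medium with 0.5% DMSO, to eight-point half-log series (test chemicals top 100 µM). Total lysis wells received 0.1% Triton X, and LDH leakage into 50 µL spent medium was read as resorufin fluorescence (CytoTox-ONE, Tecan Safire). Percent cytotoxicity was normalized to on-plate vehicle and total lysis controls and averaged over the duplicates.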

SMILES	LDH release cytotoxicity (0.03162 µM) [%]	LDH release cytotoxicity (0.1 µM) [%]	LDH release cytotoxicity (0.3162278 µM) [%]	LDH release cytotoxicity (1 µM) [%]	LDH release cytotoxicity (3.16228 µM) [%]	LDH release cytotoxicity (10 µM) [%]	LDH release cytotoxicity (31.6228 µM) [%]	LDH release cytotoxicity (100 µM) [%]	LDH release cytotoxicity (0.031623 µM) [%]	LDH release cytotoxicity (0.316228 µM) [%]
c1ccc2[nH]c(-c3cscn3)nc2c1 [Thiabendazole]	-1.05 ± 0.62	-0.974 ± 0.082	-1.37 ± 0.03	-1.6 ± 0.34	-1.13 ± 0.68	-0.856 ± 0.24	0.392 ± 0.63	5.7 ± 1.5	–	–
N#CN=C1SCCN1Cc1ccc(Cl)nc1 [Thiacloprid]	-2.96 ± 0.36	-3.73 ± 0.31	-3.467 ± 0.025	-3.3 ± 0.68	-3.46 ± 0.55	-2.54 ± 0.15	-2.87 ± 0.072	-1.64 ± 1.2	–	–
CN1COCN(Cc2cnc(Cl)s2)C1=N[N+](=O)[O-] [Thiamethoxam]	-0.296 ± 0.14	-1.13 ± 0.85	-0.0609 ± 0.4	-1.83 ± 0.5	-1.49 ± 0.41	0.119 ± 1.6	-1.01 ± 0.87	0.102 ± 1.4	–	–
COC(=O)c1c(C(F)F)nc(C(F)(F)F)c(C2=NCCS2)c1CC(C)C [Thiazopyr]	-0.958 ± 2.2	-0.18 ± 0.21	-0.693 ± 0.24	-0.8 ± 0.35	-0.567 ± 0.015	-0.719 ± 0.32	-0.722 ± 0.28	-0.433 ± 0.5	–	–
O=C(Nc1ccccc1)Nc1cnns1 [Thidiazuron]	-1.24 ± 0.048	-0.715 ± 0.86	-0.562 ± 0.16	-0.873 ± 0.82	-1.15 ± 0.018	-0.652 ± 1.3	-0.0499 ± 1.6	17.6 ± 3.5	–	–
CCN(CC)C(=O)SCc1ccc(Cl)cc1 [Thiobencarb]	-1.69 ± 0.22	-1.48 ± 0.59	-1.6 ± 2.2	-2.11 ± 1.5	-1.17 ± 1	-1.78 ± 1.8	-1.01 ± 1.6	2.18 ± 1.2	–	–
CSC(C)=NOC(=O)N(C)SN(C)C(=O)ON=C(C)SC [Thiodicarb]	0.264 ± 0.45	0.37 ± 0.55	-0.268 ± 0.33	0.546 ± 0.75	0.811 ± 0.23	1.07 ± 0.71	1.06 ± 0.2	1.18 ± 0.48	–	–
COC(=O)NC(=S)Nc1ccccc1NC(=S)NC(=O)OC [Thiophanate-methyl]	-1.04 ± 0.2	-0.552 ± 0.3	-0.928 ± 0.03	-1.83 ± 0.058	-0.882 ± 0.41	0.238 ± 0.4	0.796 ± 0.9	8.47 ± 0.31	–	–
CN(C)C(=S)SSC(=S)N(C)C [Thiram]	-1.63 ± 0.73	-2.1 ± 1.1	-2.29 ± 0.55	-1.46 ± 0.3	-2.28 ± 0.41	-1.86 ± 0.66	-1.13 ± 0.084	2.802 ± 0.022	–	–
Cc1ccc(C(C)C)c(O)c1 [Thymol]	-0.805 ± 1.1	-0.378 ± 0.63	-1.08 ± 0.33	-0.734 ± 0.81	-1.25 ± 0.71	-0.124 ± 0.09	0.381 ± 0.15	1.26 ± 0.35	–	–
O=C(O)Cc1cc(I)c(Oc2ccc(O)c(I)c2)c(I)c1 [Tiratricol]	1.48 ± 0.13	1.09 ± 1.1	1.5 ± 1.1	0.13 ± 0.074	0.965 ± 0.74	0.402 ± 0.0063	-0.312 ± 0.0079	21.5 ± 18	–	–
Cc1ccc(S(=O)(=O)NC(=O)NN2CCCCCC2)cc1 [Tolazamide]	-1.21 ± 0.35	-1.21 ± 0.45	-1.26 ± 0.85	-1.16 ± 0.26	-0.648 ± 0.45	-0.378 ± 0.45	-0.0919 ± 0.11	1.58 ± 1.5	–	–
Cc1ccc(N=C=O)cc1N=C=O [Toluene 2,4-diisocyanate]	-1.18 ± 0.59	-1.26 ± 0.15	-1.96 ± 0.45	-1.55 ± 0.2	-1.52 ± 0.076	-0.759 ± 0.27	4.408 ± 0.042	11.5 ± 1.5	–	–
CCON=C(CC)C1C(=O)CC(c2c(C)cc(C)cc2C)CC1=O (centres undefined) [Tralkoxydim]	-1.61 ± 1.5	-2.54 ± 0.76	-2.84 ± 0.85	-1.69 ± 0.41	-3.18 ± 0.7	-2.04 ± 0.19	-1.88 ± 0.12	-0.758 ± 0.81	–	–
NC(=O)Cn1c(=O)cc(CCN2CCN(c3nccc4sccc34)CC2)c2ccc(F)cc21 [Trelanserin]	-2.76 ± 0.59	-2.72 ± 0.22	-2.6 ± 0.45	-2.79 ± 0.15	-2.49 ± 0.9	-3.23 ± 0.63	-3.19 ± 0.31	4.59 ± 0.19	–	–
CC(C)N(C(=O)SCC(Cl)=C(Cl)Cl)C(C)C [Tri-allate]	-0.887 ± 0.62	-0.771 ± 0.47	-0.223 ± 0.71	-0.601 ± 0.42	-0.0707 ± 0.93	-0.765 ± 0.52	1.13 ± 1.9	1.48 ± 0.1	–	–
CCCCCCCCOC(=O)c1ccc(C(=O)OCCCCCCCC)c(C(=O)OCCCCCCCC)c1 [Tri-n-octyl trimellitate]	–	-3.02 ± 1.1	–	-1.71 ± 0.9	-2.25 ± 0.55	-2.21 ± 0.31	-0.9931 ± 0.0017	1.54 ± 0.94	-2.2 ± 0.31	-2.45 ± 0.77
CC(=O)OCC(COC(C)=O)OC(C)=O [Triacetin]	-0.962 ± 0.12	-3.22 ± 0.49	-1.81 ± 0.69	-1.13 ± 0.65	-1.14 ± 0.036	-0.506 ± 0.1	0.136 ± 0.76	0.128 ± 0.77	–	–
